Where “and” joins values, the source holds several entries; their conditions need not be identical. Equal values may be shown once.
B1: BDNF: Brain-derived neurotrophic factor, used as a reference compound (protein, UniProt P23560 19-247, looked up)
Neurotrophic factor BDNF …: APMKEANIRGQGGLAYPGVRTHGTLESVNGPKAGSRGLTSLADTFEHVIEELLDEDQKVRPNEENNKDADLYTSRVMLSSQVPLEPPLLFLLEEYKNYLDAANMSMRVRRHSDPARRGELSVCDSISEWVTAADKKTAVDMSGGTVTVLEKVPVSKGQLKQYFYETKCNPMGYTKEGCRGIDKRHWNSQCRTTQSYVRALTMDSKKRIGWRFIRIDTSCVCTLTIKRGR

How the values were obtained:
[1] = system: rat motor neurons (Islet 1/2 positive neurons); assay: Survival of primary motor neurons injured by glutamate; format: cell-based; details: glutamate 40 μM, 20 min
Method: Rat motor neurons were cultured as described (Camu et al. (1994) Journal of the neurological sciences 124 Suppl: 73-74). Briefly, pregnant female rats of 14 days gestation were killed by cervical dislocation (Rats Wistar; Janvier Lab) and the foetuses were removed from the uterus. The spinal cord were removed and placed in ice-cold PBS. Tissue segments were spun down, incubated in 0.025% (w/v) of trypsin-EDTA (Panbiotech, Ref: P10-023100) for 10 min at 37° C. Fragments were transferred in 1 mL of complete Leibovitz medium containing BSA (0.4%, Dustcher, Ref: P06-1391100) and DNasel grade II (0.1 mg/ml, Panbiotech, ref: P60-37780100). Cells were then dissociated by several rounds of trituration, centrifuged for 5 min at 470 g on a 4% BSA cushion and re-suspended in 2 mL of supplemented L15 medium. Motor neurons were counted in a Neubauer cytometer using the trypan blue exclusion test. Cells were cultured at a density of 1.5×10^4 cells/well of a 96 wells plate on astrocyte monolayer in Neurobasal (Invitrogen, ref: 21103) containing 1% of B27 (Invitrogen, ref: 17504), 2 mM L-Glutamine (Panbiotech, ref: P04-80100), 1% of PS solution, […] 2-mercaptoethanol (Invitrogen, ref: 31350-010), 2% Horse serum (Invitrogen, Ref: 16050-122), 1 ng/ml of Brain-derived neurotrophic factor (BDNF, PanBiotech, Ref: CB-1115002) and 1 ng/ml of Glial derived neurotrophic factor (GDNF, Dustcher, Ref: CB-1116001) at 37° C. in a humidified air (95%)/CO2 (5%) atmosphere.
Briefly, after 10 days of culture, medium was removed and 100 μL of fresh medium (supplemented Neurobasal without neurotrophic factor) without or with test compound was added 1 h before glutamate intoxication. Then, Glutamate at 40 μM in absence or presence of test compound will be added in the culture medium and incubated 20 min. The cells were rinsed with incubation solution (3 wash-outs) and let in the neurobasal medium containing compounds or control medium for 24 h.
[…]_Control medium stimulated with vehicle medium […]
The data were expressed as mean±s.e.m (of 6 data per condition, 1 culture). […]

Bax/Bcl-2 = assay: ELISA of cortical Bax/Bcl-2 ratio, Aβ25-35 mouse model; format: in vivo; details: Experiment 2, post-treatment, 1 mg/kg
Method: (§1) In Experiment 2, twelve mice per experimental group were administered Sc.Aβ or Aβ25-35-amyloid peptide on day 0 by i.c.v. injection. […] Animals were tested at day 7 and later.
(§2) For each of Experiments 1-4, on day 7, all animals were tested for the spontaneous alternation performance in the Y-maze test, an index of spatial working memory. On day 8 and 9, the contextual long-term memory of the animals was assessed using the step-through type passive avoidance procedure. On day 9, immediately after the retention session, animals were sacrificed by decapitation and the hippocampus and cortex dissected out. Lipid peroxidation was analyzed in the hippocampus, whereas neuroinflammation, apoptosis, amyloid burden and hyperphosphorylation of tau protein were analyzed in cortex.
(§3) Enzyme-linked immunosorbant assay (ELISA) assays: Contents in GFAP, Caspase 12, Amyloid-beta 1-40, Amyloid-beta 1-42, Total Tau, and pTau on Ser199 were analyzed by using commercial ELISA assay kit. • GFAP: Supplier: USCNK #Ref: SEA068Mu • Total Tau: Supplier: Novex #Ref: KMB7011 • pTau (S199): Supplier: Novex #Ref: KMB7041 • Amyloid beta 1-40: Supplier: Novex #Ref: KMB3481 • Amyloid beta 1-42: Supplier: Novex #Ref: KMB3441 • Caspase-12: Supplier: LSBio #Ref: LS-F11023 • BAX: Supplier: Euromedex#Ref: SEB343Mu • BCL2: Supplier: Euromedex #Ref: SEA778Mu […]

[2] = system: gerbil model of global cerebral ischemia; details: cited from earlier work
[3] = system: Tau protein phosphorylated on Serine 199 (pTauS199); assay: ELISA of cortical pTauS199, Aβ25-35 mouse model; format: in vivo; details: Experiment 2, post-treatment
Method: as §1, §2, §3

Row | Molecule | protective effect on motor neuron survival ([1]; 0.1 μM, 0.3 μM, 1 μM, 3 μM and 10 μM) | Islet 1/2 positive neurons ([1]; 10 μM) | cortical Bax/Bcl-2 ratio elevation (Bax/Bcl-2) | effective doses, neuroprotective effects [2] | elevation of cortical pTauS199 [3] | Islet 1/2 positive neurons ([1]; 50 ng/mL)
1 | CCC(C/C=C/c1ccccc1)(c1ccccc1)N(C)CC1CC1 (single isomer, unassigned; (+)) [igmesine, (+)-(E)-N-(cyclopropylmethyl)-N-methyl-3,6-diphenylhex-5-en-3-amine] | significant protective effect | 126 % of the control | fully normalized | 50 mg/kg and 75 mg/kg and 100 mg/kg | fully normalized | –
2 | B1 | – | – | – | – | – | 96.43 % of the control

— US11129801B2 (SigmaThera SAS, priority 2016, dated 2021)
